# Biological target: T1, dopamine D1 receptor (hD1R) (Homo sapiens, UniProt P21728)
# T1 construct: gene DRD1; hD1R stably expressed in FlpIn CHO cells
# Assay: cAMP BRET (CAMYEL) assay with dopamine curves, operational model of allostery (functional KB)
# Format: cell-based
# Conditions: read-out: pKB (KB, μM) ^1 (converted)
# T1 sequence (P21728 whole entry): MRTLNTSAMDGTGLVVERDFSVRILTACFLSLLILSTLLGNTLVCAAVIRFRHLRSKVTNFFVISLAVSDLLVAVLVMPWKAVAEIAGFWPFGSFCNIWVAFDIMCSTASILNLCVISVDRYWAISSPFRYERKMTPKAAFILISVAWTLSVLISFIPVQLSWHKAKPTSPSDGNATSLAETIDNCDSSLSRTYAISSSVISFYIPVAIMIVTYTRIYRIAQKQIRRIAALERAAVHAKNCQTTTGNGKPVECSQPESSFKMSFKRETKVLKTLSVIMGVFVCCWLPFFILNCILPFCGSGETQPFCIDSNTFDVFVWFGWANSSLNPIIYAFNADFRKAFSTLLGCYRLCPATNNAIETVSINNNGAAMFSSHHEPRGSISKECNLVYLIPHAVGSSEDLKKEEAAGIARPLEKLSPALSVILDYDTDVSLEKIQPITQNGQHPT
row,SMILES,Kb [µM]
1,"Cc1ccc(Cl)c(NC(=O)[C@]2(C)C[C@H]3c4ccccc4[C@@H]2c2ccccc23)c1Cl [(R)-2, (9R,10S,12S)-N-(2,6-Dichloro-3-methylphenyl)-12-methyl-9,10-dihydro-9,10-ethanoanthracene-12-carboxamide]",7.6
2,"Cc1ccc(Cl)c(NC(=O)C2(C)CC3c4ccccc4C2c2ccccc23)c1Cl (racemic) [rac-2, rel-(9R,10R,12S)-N-(2,6-Dichloro-3-methylphenyl)-12-methyl-9,10-dihydro-9,10-ethanoanthracene-12-carboxamide]",1.6
3,"Cc1ccc(Cl)c(NC(=O)[C@@]2(C)C[C@H]3c4ccccc4[C@@H]2c2ccccc23)c1Cl [(S)-2, (9S,10R,12R)-N-(2,6-Dichloro-3-methylphenyl)-12-methyl-9,10-dihydro-9,10-ethanoanthracene-12-carboxamide]",1

# Source: article PMC8270344, “Enantioenriched Positive Allosteric Modulators Display Distinct Pharmacology at the Dopamine D1 Receptor” (Molecules, 2021)
